Among the data in PubChem BioAssay AID1259408 (Genetic Toxicology Data Bank (GENE-TOX), 2018) are mutagenic call and call values, retold here.

Active and inactive are the calls of the source. The rule behind the calls is not given here.

The test system of the data set is GENE-TOX genotoxicity assays, various organisms and cells. As to the kind of experiment: GENE-TOX mutagenicity studies. The note with it: for call: Assay Type: In vivo carcinogenicity studies.
[1] abbreviates: Species/Cell Type: Human lymphocytes, Assay Type: Sister-chromatid exchange (SCE) in vitro, Assay Code: SCLT, Evaluation Type: Evaluation B (Post-1980).
[2] abbreviates: Species/Cell Type: Human, Assay Type: Sister-chromatid exchange (SCE) in vitro, Assay Code: SC1T, Evaluation Type: Evaluation B (Post-1980).
The mark [3] stands for this setting: Species/Cell Type: Salmonella typhimurium (one or more of the five standard strains: TA98, TA100, TA1535, TA1537, and TA1538), Assay Type: Histidine reverse gene mutation, Ames assay, Assay Code: SALT, Evaluation Type: Evaluation A (Pre-1980).
Where [4] appears, read: Species/Cell Type: Mammalian polychromatic erythrocytes, Assay Type: Micronucleus test, chromosome aberrations, Assay Code: MNTT, Evaluation Type: Evaluation A (Pre-1980).
The mark [5] stands for this setting: Species/Cell Type: Neurospora crassa, Assay Type: Aneuploidy, chromosome aberrations, Assay Code: NEN-, Evaluation Type: Evaluation A (Pre-1980).
Setting [6] is: Species/Cell Type: Bacillus subtilis (H17 vs M45), Assay Type: Rec-assay, spot test, DNA effects (bacterial DNA repair), Assay Code: REW-, Evaluation Type: Evaluation A (Pre-1980).
The mark [7] stands for this setting: Species/Cell Type: Salmonella typhimurium (one or more of the five standard strains: TA98, TA100, TA1535, TA1537, and TA1538), Assay Type: Histidine reverse gene mutation, Ames assay, Assay Code: SAL+, Evaluation Type: Evaluation A (Pre-1980).
[8] abbreviates: Species/Cell Type: Drosophila melanogaster, Assay Type: Sex-linked recessive lethal gene mutation, Assay Code: SRLT, Evaluation Type: Evaluation A (Pre-1980).
Where [9] appears, read: Species/Cell Type: Rodents, Sex: Male, Assay Type: Dominant lethal test, Assay Code: DLT-, Evaluation Type: Evaluation A (Pre-1980).
The mark [10] stands for this setting: Species/Cell Type: Nonhuman, Assay Code: CCG+, Evaluation Type: Evaluation A (Pre-1980).
Setting [11] is: Species/Cell Type: Saccharomyces cerevisiae, Assay Type: Mitotic recombination or gene conversion, Assay Code: YEH+, Evaluation Type: Evaluation A (Pre-1980).

Take `CC(CN(CC(=O)O)CC(=O)O)N(CC(=O)O)CC(=O)O` (stereo not drawn): the mutagenic call (Species/Cell Type: Chinese hamster lung (V79) cells, Assay Type: Forward gene mutation at the HPRT or ouabain locus, Assay Code: V79+, Evaluation Type: Evaluation A (Pre-1980)) was “active; positive”.

With `O=[N+]([O-])c1cnc(CO)n1CCO`, the mutagenic call under setting [1] was “no conclusion” and the mutagenic call under setting [2] is recorded as “no conclusion”.

`Oc1ccc2c3c(cccc13)CC2`: the mutagenic call under setting [3] is “no conclusion”.

Turning to `CCCCN(CCCC(=O)NCC(=O)O)N=O`, the mutagenic call under setting [3] is “no conclusion”.

For the compound `O=C=Nc1ccc(Nc2ccc([N+](=O)[O-])cc2)cc1`, the mutagenic call under setting [3] is reported as “no conclusion”.

For the compound `CC[N+](=O)[O-]`, under setting [4], the mutagenic call is given as “no conclusion”.

`O=C1OC2(c3cc(Br)c(O)cc3Oc3c2cc(Br)c(O)[c]3[Hg])c2ccccc21` (stereo not drawn): the mutagenic call (Species/Cell Type: Saccharomyces cerevisiae, Assay Type: Aneuploidy, chromosome aberrations, Assay Code: YEN+, Evaluation Type: Evaluation A (Pre-1980)) is “active; positive” and the mutagenic call (Species/Cell Type: Saccharomyces cerevisiae, Assay Type: Mitotic recombination or gene conversion, Assay Code: YEC+, Evaluation Type: Evaluation A (Pre-1980)) was “active; positive”.

Regarding `OC(c1ccccc1)C(c1ccccc1)c1ccccc1` (stereo not drawn), the mutagenic call (Species/Cell Type: Escherichia coli polA (W3119 vs P3478), Assay Type: Rec-assay, DNA effects (bacterial DNA repair), Assay Code: RE1T, Evaluation Type: Evaluation A (Pre-1980)) was “no conclusion”.

For `Nc1nc2n[nH]nc2c(=O)[nH]1`, the mutagenic call under setting [5] was “inactive; negative”.

With `CCCCNCCCC`, the mutagenic call (Species/Cell Type: Nonhuman, Assay Type: Chromosome aberrations in vitro, Assay Code: CY&+D, Dose Response: With dose response, Evaluation Type: Evaluation A (Pre-1980)) is “active; positive” and the mutagenic call (Species/Cell Type: Nonhuman, Assay Type: Sister-chromatid exchange (SCE) in vitro, Assay Code: SC2+, Evaluation Type: Evaluation A (Pre-1980)) was “active; positive”.

In the case of `c1ccc2cnccc2c1`, under setting [3], the mutagenic call is “no conclusion”.

Consider `Cc1ccc(C)cc1`, for which, under “Species/Cell Type: Mammalian polychromatic erythrocytes, Assay Type: Micronucleus test, chromosome aberrations, Assay Code: MNTT, Evaluation Type: Evaluation B (Post-1980)”, the mutagenic call is given as “no conclusion”.

Regarding `C1=Cc2c(cc3ccc4cccc5ccc2c3c45)CC1`, where the note is “Species/Cell Type: Salmonella typhimurium (one or more of the five standard strains: TA98, TA100, TA1535, TA1537, and TA1538), Assay Type: Histidine reverse gene mutation, Ames assay, Assay Code: SAL+*, Activation: With metabolic activation, Evaluation Type: Evaluation A (Pre-1980)”, the mutagenic call is “active; positive”.

Consider `CNC1(c2ccccc2Cl)CCCCC1=O` (stereo not drawn), for which, under setting [3], the mutagenic call is recorded as “no conclusion”.

For `O=[Se](=O)(O)O`, the mutagenic call reads like this: under setting [6], “inactive; negative”; (Species/Cell Type: Human diploid fibroblasts, Assay Type: Unscheduled DNA synthesis (UDS) in vitro, DNA effects, Assay Code: UDH+, Evaluation Type: Evaluation A (Pre-1980)) “active; positive”; under setting [1], “no conclusion”; under setting [2], “no conclusion”; (Species/Cell Type: Nonhuman, Assay Type: Sister-chromatid exchange (SCE) in vitro, Assay Code: SC2+*, Activation: With metabolic activation, Evaluation Type: Evaluation B (Post-1980)) “active; positive”; under setting [7], “active; positive”.

Take `CS(=O)(=O)OC/C=C\COS(C)(=O)=O`: the mutagenic call under setting [8] is listed as “no conclusion”.

In the case of `CC[n+]1c(-c2ccccc2)c2cc(N=[N+]=[N-])ccc2c2ccc(N)cc21`, under setting [3], the mutagenic call was “no conclusion”.

In the case of `C=C1C[C@@]23CC[C@H]4[C@@](C)(CCC[C@@]4(C)C(=O)O[C@@H]4O[C@H](CO)[C@@H](O)[C@H](O)[C@H]4O)[C@@H]2CC[C@]1(O[C@@H]1O[C@H](CO)[C@@H](O)[C@H](O)[C@H]1O[C@@H]1O[C@H](CO)[C@@H](O)[C@H](O)[C@H]1O)C3`, the mutagenic call under setting [2] is reported as “no conclusion”.

As for `CC(C)c1ccccc1OC(=O)N(C)N=O`, the mutagenic call was “active; positive” (Species/Cell Type: Bacillus subtilis (H17 vs M45T), Assay Type: Rec-assay, spot test, DNA effects (bacterial DNA repair), Assay Code: REX+, Evaluation Type: Evaluation A (Pre-1980)) and “active; positive” (Species/Cell Type: Escherichia coli WP2, Assay Type: Tryptophan reverse gene mutation, Assay Code: WP2+, Evaluation Type: Evaluation A (Pre-1980)).

On to `Cc1ccc2cc3c(ccc4cc(C)ccc43)cc2c1`, for which the mutagenic call under setting [8] is given as “no conclusion”.

As to `O[C@@H]1[C@@H](O)c2c(cc3ccc4cccc5ccc2c3c45)C2O[C@@H]21` (stereo partly drawn), the mutagenic call under setting [7] was “active; positive”.

Regarding `[Cl][Th]([Cl])([Cl])[Cl]`, the mutagenic call under setting [6] was “inactive; negative”.

On to `O=C(O)Cc1ccccc1[N+](=O)[O-]`, for which the mutagenic call under setting [7] was “active; positive”.

Regarding `Nc1ccc([N+](=O)[O-])cc1O`, the mutagenic call is “inactive; negative” under setting [5], “inactive; negative” under setting [9] and “active; positive” under setting [7].

Consider `ONc1ccc2ccccc2c1`, for which the mutagenic call (Species/Cell Type: Chinese hamster ovary (CHO) cells, Assay Type: Forward gene mutation at the HPRT locus, Assay Code: CHO+, Evaluation Type: Evaluation B (Post-1980)) is “active; positive”; the mutagenic call (Species/Cell Type: Escherichia coli polA (W3119 vs P3478), Assay Type: Rec-assay, DNA effects (bacterial DNA repair), Assay Code: RE1+, Evaluation Type: Evaluation A (Pre-1980)) was “active; positive”; the mutagenic call (Species/Cell Type: Neurospora crassa, Assay Type: Forward gene mutation, Assay Code: NEF+, Evaluation Type: Evaluation A (Pre-1980)) was “active; positive”; the mutagenic call under setting [11] was “active; positive”; the mutagenic call under setting [7] is “active; positive”; the mutagenic call (Species/Cell Type: Salmonella typhimurium, Assay Type: Forward and reverse gene mutation, host-mediated assay, Assay Code: HMA+, Evaluation Type: Evaluation A (Pre-1980)) is “active; positive”. Also, under setting [10], the call was “active; positive”.

Take `[Cl][Cd][Cl]`: the mutagenic call is, setting by setting: (Species/Cell Type: Bacillus subtilis (H17 vs M45), Assay Type: Rec-assay, spot test, DNA effects (bacterial DNA repair), Assay Code: REW+, Evaluation Type: Evaluation A (Pre-1980)) “active; positive”; (Species/Cell Type: Drosophila melanogaster, Assay Type: Aneuploidy, whole sex chromosome loss, chromosome aberrations, Assay Code: DAC+, Evaluation Type: Evaluation A (Pre-1980)) “active; positive”; (Species/Cell Type: Human lymphocytes or leukocytes, Assay Type: Chromosome aberrations in vitro, Assay Code: CY7-, Evaluation Type: Evaluation A (Pre-1980)) “inactive; negative”; (Species/Cell Type: Mammalian polychromatic erythrocytes, Assay Type: Micronucleus test, chromosome aberrations, Assay Code: MNT-, Evaluation Type: Evaluation B (Post-1980)) “inactive; negative”; under setting [4], “no conclusion”; (Species/Cell Type: Mouse, Sex: Male, Assay Type: Sperm morphology, Assay Code: SPIT, Evaluation Type: Evaluation A (Pre-1980)) “no conclusion”. The mutagenic call was “inactive; negative” (Species/Cell Type: Nonhuman, Assay Type: Sister-chromatid exchange (SCE) in vitro, Assay Code: SC2-, Evaluation Type: Evaluation B (Post-1980)); “active; positive” (Species/Cell Type: Rabbit, Sex: Male, Assay Type: Sperm morphology, Assay Code: SPR+, Evaluation Type: Evaluation A (Pre-1980)); “active; positive” (Species/Cell Type: Rat, Sex: Male, Assay Type: Sperm morphology, Assay Code: SPA+, Evaluation Type: Evaluation A (Pre-1980)); “inactive; negative” under setting [9]; “active; positive” under setting [11]; “no conclusion” under setting [3]. The mutagenic call is, setting by setting: (Species/Cell Type: Salmonella typhimurium, Assay Type: Forward and reverse gene mutation, host-mediated assay, Assay Code: HMA-, Evaluation Type: Evaluation A (Pre-1980)) “inactive; negative”; (Species/Cell Type: Syrian hamster embryo (SA7/SHE) cells, Assay Type: Cell transformation, viral enhanced, Assay Code: CT7+, Evaluation Type: Evaluation A (Pre-1980)) “active; positive”. For the same compound, the call under setting [10] was “active; positive”.

As to `Nc1ncnc2c1ncn2[C@@H]1O[C@H](CO)[C@@H](O)[C@@H]1O`, the mutagenic call (Species/Cell Type: Vicia faba, Assay Type: Chromosome aberrations, Assay Code: VIC+D, Dose Response: With dose response, Evaluation Type: Evaluation A (Pre-1980)) was “active; positive”.

As for `O[C@H]1C=Cc2cc3c(ccc4ccccc43)cc2[C@@H]1O`, the mutagenic call is “inactive; negative” (Species/Cell Type: Chinese hamster lung (V79) cells, Assay Type: Forward gene mutation at the HPRT or ouabain locus, Assay Code: V79-*, Activation: With metabolic activation, Evaluation Type: Evaluation A (Pre-1980)); “active; positive” (Species/Cell Type: Nonhuman, Assay Type: Sister-chromatid exchange (SCE) in vitro, Assay Code: SC2+D, Dose Response: With dose response, Evaluation Type: Evaluation B (Post-1980)); “no conclusion” under setting [3]. Moreover, the call (Species/Cell Type: Nonhuman, Assay Code: CCGT, Evaluation Type: Evaluation A (Pre-1980)) is recorded as “no conclusion”.

Take `CCn1c2ccccc2c2cc(N)ccc21`: under setting [10], the call was “active; positive”.
